In patent US12274689B2, “Compound for the management of feline diabetes” (INCREVET, INC., priority 2019, dated 2025):

Columns and labels:
[1] = test system: cats with experimental diabetes; settings: subcutaneous injection of a suspension in olive oil; Lukens et al. 1943, 1961; cited from earlier work
ZDF rats = experiment: plasma glucose in male Zucker Diabetic Fatty rats, daily oral dosing (study 338); format: in vivo; settings: ZDF rats; after 3 weeks; groups receiving 0.3, 1.0 and 3.0 mg kg^−1 (p<0.05, <0.01 and <0.01)

Compound	hyperglycemia in diabetic cats [1]	plasma glucose levels compared to vehicle control (ZDF rats)
O=C(CCc1ccc(O)cc1)c1c(O)cc(O)cc1O[C@@H]1O[C@H](CO)[C@@H](O)[C@H](O)[C@H]1O [phlorizin]	dramatic reduction of hyperglycemia	–
OC[C@H]1O[C@@H](c2ccc(Cl)c(Cc3ccc(OCCOC4CC4)cc3)c2)[C@H](O)[C@@H](O)[C@@H]1O [EGT0001474, bis-proline complex of (2S,3R,4R,5S,6R)-2-(4-chloro-3-(4-(2-cyclopropoxyethoxy)benzyl)phenyl)-6-(hydroxymethyl)tetrahydro-2H-pyran-3,4,5-triol]	–	significantly lower
